{"source": "patent US9855273B2", "about": "“Combination therapy for MDS” (priority 2013, dated 2018)", "key": {"[1]": {"tested_on": "MDS/AML cell lines (MDSL, TF1, THP1, HL60)", "test": "Viable cell growth (trypan blue exclusion) of MDS/AML cell lines", "type": "cell-based, human", "conditions": "IRAK-Inh 10 μM, ABT-263 0.1 μM", "procedure": "Acute myeloid leukemic cell lines, HL60, THP1, and TF-1 were purchased from the American Type Culture Collection. MOLM13 were purchased from AddexBio. The myelodysplastic cell line, MDS-L, was provided by Dr. Kaoru Tohyama (Kawasaki Medical School, Okayama, Japan) (Matsuoka et al., 2010). […] Additionally, both the MDSL and TF-1 cell lines were cultured in the presence of 10 ng/mL human recombinant IL-3 (Stemcell Technologies)."}, "MDSL cells": {"tested_on": "MDSL cells", "test": "MDSL xenograft, cells pre-treated in vitro, NSGS mice", "type": "in vivo", "conditions": "MDSL treated in vitro with IRAK-Inh 10 μM and/or ABT-263 0.1 μM; DMSO 28 days", "procedure": "Xenograftment of NOD/SCID-IL2Rγ(NSG) and NSG-hSCF/hGM-CSF/hIL3 (NSGS) MDSL cells (1×10^6-5×10^6) were injected into the tail veins of 8-week old sublethally irradiated ([…]) NSG or NSG animals engineered to express human SCF, GM-CSF, and IL3 (NSGS) as previously described (Wunderlich et al., 2010). Mice were monitored by performing complete blood counts (Drew Hemavet 950FS). Following red cell lysis, human MDSL cells were identified by hCD45-FITC staining. In vivo delivery of IRAK-Inh approach is adapted from previous reports (Yang et al., 2011): IRAK-Inh was diluted in DMSO (5 mM) and further dissolved in sterile phosphate buffered saline (PBS; pH 7.2). Animals were injected i.p. with 2.12 mg/kg IRAK-Inh 3× weekly.\nTo determine whether IRAK-Inh can delay human MDS-like disease in vivo, MDSL were pre-treated with IRAK-Inh (10 μM) for 24 hrs in vitro and subsequently injected intravenously (i.v.) into NSG (5×10^6 cells) and NSGS (1×10^6 cells) recipient mice (FIG. 4A). This approach permitted us to evaluate the cell autonomous effect of IRAK-Inh on MDS cell viability and engraftment without altering endogenous IRAK1 function in the mouse.\nMoreover, we investigated whether combined IRAK1 and BCL2 inhibition could delay human MDS-like disease in vivo. MDSL cells were treated with IRAK-Inh (10 μM) and/or ABT-263 (0.1 μM) for 48 hrs in vitro and subsequently injected i.v. into NSGS mice (FIG. 4A)."}, "normal CD34+ cells": {"tested_on": "normal CD34+ cells", "test": "Colony formation in methylcellulose, normal CD34+ cells", "conditions": "individual or combination treatment", "description": "The effect of IRAK-Inh on leukemic progenitor function was evaluated in methylcellulose containing IRAK-Inh. […] As an alternative approach, MDS/AML cells were pre-treated with IRAK-Inh for 24 hours and then plated in methylcellulose."}}, "data": [{"smiles": "CC1(C)CCC(c2ccc(Cl)cc2)=C(CN2CCN(c3ccc(C(=O)NS(=O)(=O)c4ccc(N[C@H](CCN5CCOCC5)CSc5ccccc5)c(S(=O)(=O)C(F)(F)F)c4)cc3)CC2)C1", "note": "[ABT-263]", "values": [{"measurement": "sensitivity of HL60 cells", "setting": "[1]; HL60, alone or combined", "result": "refractory"}, {"measurement": "MDS/AML cell line growth and survival", "setting": "[1]; alone or co-treatment", "result": "modest effects"}, {"measurement": "median survival", "setting": "MDSL cells", "result": "~35", "unit": "days"}, {"measurement": "viability and hematopoietic progenitor function of normal CD34+ cells", "setting": "normal CD34+ cells", "result": "not affected"}]}]}
